Reference: patent US8618178B2, “Method and substances for treating T-cell mediated autoimmune diseases” (Eberhard-Karls-Universitaet Tuebingen Universitaetsklinikum, priority 2006, dated 2013)
“Also recorded” adds a separate entry of the source. Counter-ions that a name gives are not always drawn.

How the values were obtained:
BMDC = assay: Measurement of reactive oxygen species (ROS) in DC with dichlorofluorescein, flow cytometry; format: cell-based, mouse; details: dichlorofluorescein, flow cytometry
Procedure: For the measurement of reactive oxygen species (ROS) in DC and APC, the fluorescent dye 2′,7′ dichlorofluorescein (H2 DCFDA, Molecular Probes, Eugene, USA) was used. 5×10^5 DC were preincubated in 1 ml of RPMI medium (without mercaptoethanol) for 60 mins at 37° C. in the incubator with 1% DMSO or 10 μg/ml DMF+/−NAC (1 mM) or GSX (1 mM). After this preincubation, 1 μM/ml H2 DCFDA was added and the cells incubated for a further 30 mins at 37° C. Within one hour, the fluorescence produced was detected using flow cytometry (FL1).
(§1) As antigen presenting cells (APC), T cell depleted spleen cells from syngenic mice were used. Dendritic cells (DC) which were obtained from bone marrow (BMDC) and cultured with GM-CSF were used for the relevant experiments on day 7 of culturing. For the experiment, in each case an equal number of APC were cultured either with the medium alone, with L-BSO (C8H18N2O3S, 0.5 mM), dimethyl sulfoxide DMSO(C2H6OS), dimethyl fumarate DMF (C6H8O4, dissolved in DMSO, 70 μM), or calcium monomethyl fumarate (MMF; CaC10H10O8, 200 μM). All substances except for MMF (Fumapharm) were purchased from Sigma-Aldrich. At the respective stated times (see below) the cells were either analyzed directly for their GSH content, used for T cell stimulation or stimulated for IL-2 production with Escherichia coli lipopolysaccharides 055.B5 (Sigma-Aldrich) or CpG-DNA 1668 (MWG Biotech) and IL-4 (Stratmann). In order to raise the GSH level again, 1 mM GSH-OEt (C12H21N3O6S; Sigma-Aldrich) or 1 mM NAC (Sigma-Aldrich) was added.
For testing the potential of pharmaceutical substances to induce the ROS, the following procedure was developed: for the measurement of reactive oxygen species (ROS) in cells, the fluorescent dye 2′,7′ dichlorofluorescein (H2 DCFDA) is used. The absorption spectrum of the substance is 492-495 nm and the emission spectrum lies in the range between 517-527 nm. On induction of cell stress, e.g., by the administration of ROS-causing reagents, oxidation of the H2 DCFDA to DCFDA+H2 occurs. The fluorescence arising as a result can be detected using flow cytometry (FL1).

IL-12 = IL-12 production by DC, ELISA of culture supernatants; format: cell-based, mouse; details: after stimulation with LPS
Procedure: IL-4, IL-10, IL-12 and interferon-γ were determined using the ELISA (enzyme linked immunosorbent assay) set or with the use of individual components from BD BioSciences. IL-23 in the supernatant was determined using the ELISA set (eBioscience). For intracytoplasmic cytokine analyses, the T cells were restimulated with PMA/ionomycin or with APC and peptide in the presence of brefeldin A, then fixed and permeabilized and stained. For the surface staining, anti-CD4 or KJ1-26 antibodies were used; the cytokine antibodies (PE labeled) were all obtained from BD Pharmingen.
as §1, with “used for T cell stimulation or stimulated for IL-2 production with Escherichia coli lipopolysaccharides” left out

[1] = system: experimental autoimmune encephalomyelitis (EAE); assay: EAE after transfer of in vitro generated PLP-specific T cells into naive SJL mice; format: in vivo; details: 10^7 lymphocytes injected into naive SJL mice
Procedure: Spleen and lymph node CD4^+ T cells were stimulated with PLP (proteolipid protein) peptide 139-151 (10 μg/ml) and stimulated for four days with irradiated SJL-APC in the presence or absence of L-BSO (0.5 mM, Sigma), expanded for three to four days and then restimulated for cytokine production (proteolipid protein is the commonest myelin protein in the central nervous system and plays an important part as an autoantigen in the onset of multiple sclerosis). Next, 10^7 sham (control) or L-BSO treated T cells were injected intraperitoneally into naive SJL mice and the EAE developing as a result was observed. […] Half of the group was fed daily for 14 days with DMF 0.3 mg/ml (Fluka) or L-BSO 0.15 mg/ml in the drinking water. For the cytokine analysis of PLP-specific T cells, the draining lymph nodes of the SJL mice were removed 6 days after the immunization and CD4^+ T cells antigen-specifically analyzed (ELISPOT). For this, ELISPOT plates (Millipore Corporation) were coated with anti-IFN-γ or anti-IL-4 antibodies overnight at 4° C., blocked after 12 hrs with PBS/10% FCS and, after the solution had been poured off, the isolated T lymphocytes were incubated with APC and medium alone or in the presence of PLP peptide. After the incubation time, the cells were poured off, and the plates washed with PBS/Tween and incubated with biotin-conjugated secondary antibodies. After further washing procedures and incubation with streptavidin-alkaline phosphatase (Boehringer), the plates were incubated with developer solution. After washing with H2O, the number of spots was determined in the ELISPOT reader (Biosys).
Since the induction of the TH2 phenotype could adversely affect the ability of the CD4^+ T cells to induce autoimmune diseases in immunocompetent mice, it was concluded that GSH^lowIL12^−DC2 could weaken the ability of autoreactive CD4^+ T cells to induce the disease. For the next experiments, lymphocytes from SJL mice were stimulated twice with PLP peptide, either in the presence or absence of L-BSO, DMF or MMF. […]

Row | Structure (SMILES) | intracellular ROS in DC (BMDC) | IL-12 production by DC (IL-12) | ability of T cells generated in the presence of the substance to induce EAE [1]
1 | COC(=O)/C=C/C(=O)OC [DMF, dimethyl fumarate] | rise in ROS | strong suppression of IL-12 production; also recorded: markedly less; also recorded: markedly decreased capacity to produce IL-12 | not able to trigger severe encephalomyelitis
2 | CCCCS(=N)(=O)CCC(N)C(=O)O [L-BSO, L-buthionine sulfoximine] | rise in intracellular ROS | strong suppression of IL-12 production; also recorded: markedly decreased capacity to produce IL-12 | scarcely still capable of inducing EAE in vivo
3 | COC(=O)/C=C/C(=O)[O-].[Ca+] [MMF, calcium monomethyl fumarate] | induces ROS | strong suppression of IL-12 production; also recorded: markedly decreased capacity to produce IL-12 | not able to trigger severe encephalomyelitis
